Patent US20250236629A1, “MEDIUM- OR MACRO-CYCLIC BENZYL-SUBSTITUTED HETEROCYCLE DERIVATIVES AND RELATED USES” (CENTESSA PHARMACEUTICALS (UK) LIMITED, priority 2022, published 2025)

What follows are compounds tested against T1, human orexin type 2 receptor (hOX2R) (Homo sapiens, UniProt O43614) (assay: Orexin type 2 receptor agonist activity, intracellular Ca2+ (FLIPR TETRA) in CHO cells). Conditions: CHO cells expressing hOX2R; Ca2+ fluorescence area; 100% = 10 nM human orexin A.
T1 construct: the Orexin receptor cDNA was inserted into pcDNA3.1(+) plasmid vector; expressed in transfected cells
T1 sequence (O43614 1-444): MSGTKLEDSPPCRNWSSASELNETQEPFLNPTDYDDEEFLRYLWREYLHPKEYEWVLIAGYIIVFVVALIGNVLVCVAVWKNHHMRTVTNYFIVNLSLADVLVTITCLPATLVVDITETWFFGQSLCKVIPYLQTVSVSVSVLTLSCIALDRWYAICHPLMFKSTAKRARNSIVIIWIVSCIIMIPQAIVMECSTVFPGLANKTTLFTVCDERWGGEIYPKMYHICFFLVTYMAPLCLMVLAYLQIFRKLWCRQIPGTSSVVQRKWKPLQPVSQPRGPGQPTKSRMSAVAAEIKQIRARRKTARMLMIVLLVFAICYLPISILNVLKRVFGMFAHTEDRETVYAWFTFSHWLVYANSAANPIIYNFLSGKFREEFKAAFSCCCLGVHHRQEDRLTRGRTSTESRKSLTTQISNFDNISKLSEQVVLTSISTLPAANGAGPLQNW
Assay type: cell-based
Protocol: Stable cell line generation. Obtainment of cells stably expressing either human orexin type 2 or human orexin type 1 receptor: to obtain a stable cell line the Orexin receptor cDNA was inserted into pcDNA3.1(+) plasmid vector and clones identified by G418 drug resistance selection. […] A single clone for OX2R—CHO and OX1R—CHO were grown in bulk and frozen to generate a cell bank for routine screening.
Measurement of orexin type 2 receptor agonist activity. Chinese hamster ovary (CHO) cells expressing human orexin type 2 receptor (hOX2R) or human orexin type 1 receptor (hOX1R) were seeded in each well of 384 well black clear bottom plates (BD Flacon) at 10,000 cells per well and cultured for 24 hr in an Ham's F12 (Gibco) medium containing 10% fetal calf serum (Sigma Aldrich) under the conditions of 37° C., 5% CO2. After removal of the medium, 50 μl of assay buffer 1 (0.1% bovine serum albumin (Sigma Aldrich), 20 mM HEPES (Molecular Dimensions), […] probenecid (Sigma Aldrich), 1× Calcium 5 dye (Molecular Devices) in Hank's balanced salt solution (Invitrogen)) was added, and the cells were incubated for 60 min under the conditions of 37° C., 5% CO2. A test compound was dissolved in dimethyl sulfoxide (Sigma Aldrich) to 10 mM, and then diluted with assay buffer 2 (20 mM HEPES, Hank's balanced salt solution, 0.1% bovine serum albumin). For the reaction, a test compound solution (10 μl) was added using Fluorescent Imaging Plate Reader TETRA (FLIPR TETRA: manufactured by Molecular Devices), a fluorescence value (excitation wavelength 488 nm, measurement wavelength 570 nm) of each well was measured every one second for 2 min, and the agonist activity was determined using the area of the fluorescence value as an indicator of intracellular Ca^2+ concentration. The agonist activity of the test compound was calculated assuming that the fluorescence value of the well added with only the dilution buffer was 0% and the fluorescence value of the well added with 10 nM human orexin A (Tocris) buffer was 100%.
Values of hOx2 pEC50 in Table B are presented in ranges, in which 6.0≤“+”<7.0, 7.0≤“++”<8.0, 8.0≤“+++”<9.0, and 9.0≤“++++”<10.4.

hOx2 pEC50 | Compound
+++ (8.0≤“+++”<9.0) | N-((2′S,3′S)-3′-fluoro-6′-methyl-5′-oxospiro[cyclopropane-1,4′-9-oxa-6-aza-4(2,1)-pyrrolidina-1(1,2),2(1,3)-dibenzenacyclononaphan]-3′-yl)ethanesulfonamide [Example 19]

Same assay, conditions: CHO cells expressing hOX2R; Ca2+ fluorescence area; 100% = 10 nM human orexin A; read-out: hOx2 pEC50 (converted)

EC50 [nM] | Compound
1 to 10 | CN1CCOc2c(F)cc(F)cc2-c2cccc(c2F)C[C@H]2[C@@H](NS(=O)(=O)C(F)F)C3(CC3)CN2C1=O [Example 39, 1,1-difluoro-N-((2′S,3′S)-2′,3′,5′-trifluoro-6′-methyl-5′-oxospiro[cyclopropane-1,4′-9-oxa-6-aza-4(2,1)-pyrrolidina-1(1,2),2(1,3)-dibenzenacyclononaphan]-3′-yl)methanesulfonamide]
1 to 10 | CN1CCOc2c(F)cc(F)cc2-c2cccc(c2F)C[C@H]2[C@@H](NS(=O)(=O)CF)C3(CC3)CN2C1=O [Example 40, 1-fluoro-N-((2′S,3′S)-2′,3′,5′-trifluoro-6′-methyl-5′-oxospiro[cyclopropane-1,4′-9-oxa-6-aza-4(2,1)-pyrrolidina-1(1,2),2(1,3)-dibenzenacyclononaphan]-3′-yl)methanesulfonamide]
1 to 10 | O=C1CCOc2ccccc2-c2cccc(c2)C[C@H]2[C@@H](NS(=O)(=O)C3(F)CC3)[C@@H](F)CCN12 [Example 45, 1-fluoro-N-((4^2S,4^3R,4^4S)-4^4-fluoro-5-oxo-8-oxa-4 (2,1)-piperidina-1 (1,2),2 (1,3)-dibenzenacyclooctaphane-4^3-yl)cyclopropane-1-sulfonamide]
0.0398 to 1 | O=C1CCOc2c(F)cccc2-c2cccc(c2)C[C@H]2[C@@H](NS(=O)(=O)C3(F)CC3)[C@@H](F)CCN12 [Example 46, N-((4^2S,4^3R,4^4S)-1^3,4^4-difluoro-5-oxo-8-oxa-4 (2,1)-piperidina-1 (1,2),2 (1,3)-dibenzenacyclooctaphane-4^3-yl)-1-fluorocyclopropane-1-sulfonamide]
0.0398 to 1 | O=C1CCOc2ccccc2-c2cccc(c2)C[C@H]2[C@@H](NS(=O)(=O)C3(F)CC3)CCCN12 [Example 50, 1-fluoro-N-((4^2S,4^3S)-5-oxo-8-oxa-4 (2,1)-piperidina-1 (1,2),2 (1,3)-dibenzenacyclooctaphane-4^3-yl)cyclopropane-1-sulfonamide]

Second part, the compound before the results:

Compound | EC50 [nM]
CN1CCOc2ccccc2-c2cccc(c2F)C[C@H]2[C@@H](NS(=O)(=O)CF)C3(CC3)CN2C1=O [Example 25, 1-fluoro-N-((2′S,3′S)-2′-fluoro-6′-methyl-5′-oxospiro[cyclopropane-1,4′-9-oxa-6-aza-4(2,1)-pyrrolidina-1(1,2),2(1,3)-dibenzenacyclononaphan]-3′-yl)methanesulfonamide] | 1 to 10
O=C1CCOc2ccccc2-c2cccc(c2)C[C@H]2[C@@H](NS(=O)(=O)C(F)F)CCCN12 [Example 26, 1,1-difluoro-N-((4^2S,4^3S)-5-oxo-8-oxa-4(2,1)-piperidina-1(1,2),2(1,3)-dibenzenacyclooctaphane-4^3-yl)methanesulfonamide] | 1 to 10
CCS(=O)(=O)N[C@H]1CCCN2C(=O)CCOc3ccccc3-c3cccc(c3F)C[C@@H]12 [Example 27, N-((4^2S,4^3S)-22-fluoro-5-oxo-8-oxa-4(2,1)-piperidina-1(1,2),2(1,3)-dibenzenacyclooctaphane-4^3-yl)ethanesulfonamide] | 1 to 10
C[C@@H](F)S(=O)(=O)N[C@H]1CCCN2C(=O)CCOc3ccccc3-c3cccc(c3)C[C@@H]12 [Example 28, (S)-1-fluoro-N-((4^2S,4^3S)-5-oxo-8-oxa-4(2,1)-piperidina-1(1,2),2(1,3)-dibenzenacyclooctaphane-4^3-yl)ethane-1-sulfonamide] | 0.0398 to 1
CCS(=O)(=O)N[C@H]1[C@@H](F)CN2C(=O)CCOc3ccccc3-c3cccc(c3F)C[C@@H]12 [Example 29, N-((4^2S,4^3R,4^4S)-2^2,4^4-difluoro-5-oxo-8-oxa-4(2,1)-pyrrolidina-1(1,2),2(1,3)-dibenzenacyclooctaphane-4^3-yl)ethanesulfonamide] | 1 to 10
CN1CCOc2c(F)cccc2-c2cccc(c2)C[C@H]2[C@@H](NS(=O)(=O)CF)C3(CC3)CN2C1=O [Example 30, 1-fluoro-N-((2′S,3′S)-3′-fluoro-6′-methyl-5′-oxospiro[cyclopropane-1,4′-9-oxa-6-aza-4(2,1)-pyrrolidina-1(1,2),2(1,3)-dibenzenacyclononaphan]-3′-yl)methanesulfonamide] | 10 to 100
CN1CCOc2c(F)cc(F)cc2-c2cccc(c2)C[C@H]2[C@@H](NS(=O)(=O)C(F)F)C3(CC3)CN2C1=O [Example 31, N-((2′S,3′S)-3′,5′-difluoro-6′-methyl-5′-oxospiro[cyclopropane-1,4′-9-oxa-6-aza-4(2,1)-pyrrolidina-1(1,2),2(1,3)-dibenzenacyclononaphan]-3′-yl)-1,1-difluoromethanesulfonamide] | 10 to 100
CN1CCOc2ccccc2-c2cccc(c2F)C[C@H]2[C@@H](NS(=O)(=O)CF)CCCN2C1=O [Example 32, 1-fluoro-N-((4^2S,4^3S)-2^2-fluoro-6-methyl-5-oxo-9-oxa-6-aza-4(2,1)-piperidina-1(1,2),2(1,3)-dibenzenacyclononaphane-4^3-yl)methanesulfonamide] | 10 to 100
CC(C)(F)S(=O)(=O)N[C@H]1CCCN2C(=O)CCOc3ccccc3-c3cccc(c3F)C[C@@H]12 [Example 33, 2-fluoro-N-((4^2S,4^3S)-2^2-fluoro-5-oxo-8-oxa-4(2,1)-piperidina-1(1,2),2(1,3)-dibenzenacyclooctaphane-4^3-yl)propane-2-sulfonamide] | 1 to 10
CN1CCOc2c(F)cccc2-c2cccc(c2)C[C@H]2[C@@H](NS(=O)(=O)C(F)F)C3(CC3)CN2C1=O [Example 34] | 1 to 10
CC(C)S(=O)(=O)N[C@H]1[C@@H](F)CN2C(=O)N(C)CCOc3ccccc3-c3cccc(c3F)C[C@@H]12 [Example 35, N-((4^2S,4^3R,4^4S)-2^2,4^4-difluoro-6-methyl-5-oxo-9-oxa-6-aza-4(2,1)-pyrrolidina-1(1,2),2(1,3)-dibenzenacyclononaphane-4^3-yl)propane-2-sulfonamide] | 1 to 10
O=C1CCOc2ccccc2-c2cccc(c2F)C[C@H]2[C@@H](NS(=O)(=O)C3(F)CC3)CCCN12 [Example 36, 1-fluoro-N-((4^2S,4^3S)-2^2-fluoro-5-oxo-8-oxa-4(2,1)-piperidina-1(1,2),2(1,3)-dibenzenacyclooctaphane-4^3-yl)cyclopropane-1-sulfonamide] | 1 to 10
CCN1CCOc2ccccc2-c2cccc(c2)C[C@H]2[C@@H](NS(=O)(=O)CF)C3(CC3)CN2C1=O [Example 37, N-((2′S,3′S)-6′-ethyl-5′-oxospiro[cyclopropane-1,4′-9-oxa-6-aza-4(2,1)-pyrrolidina-1(1,2),2(1,3)-dibenzenacyclononaphan]-3′-yl)-1-fluoromethanesulfonamide] | 0.0398 to 1
CN1CCOc2ccccc2-c2cccc(c2)C[C@H]2[C@@H](NS(=O)(=O)C(C)(C)F)C3(CC3)CN2C1=O [Example 38, 2-fluoro-N-((2′S,3′S)-6′-methyl-5′-oxospiro[cyclopropane-1,4′-9-oxa-6-aza-4(2,1)-pyrrolidina-1(1,2),2(1,3)-dibenzenacyclononaphan]-3′-yl)propane-2-sulfonamide] | 1 to 10
